“Also recorded” adds a separate entry of the source.

The target of data set [1] is T1, TLR3 (Mus musculus, UniProt Q99MB1).
T1 construct: endogenous in cells; host or cells: RAW 264.7
T1 sequence (Q99MB1 26-905): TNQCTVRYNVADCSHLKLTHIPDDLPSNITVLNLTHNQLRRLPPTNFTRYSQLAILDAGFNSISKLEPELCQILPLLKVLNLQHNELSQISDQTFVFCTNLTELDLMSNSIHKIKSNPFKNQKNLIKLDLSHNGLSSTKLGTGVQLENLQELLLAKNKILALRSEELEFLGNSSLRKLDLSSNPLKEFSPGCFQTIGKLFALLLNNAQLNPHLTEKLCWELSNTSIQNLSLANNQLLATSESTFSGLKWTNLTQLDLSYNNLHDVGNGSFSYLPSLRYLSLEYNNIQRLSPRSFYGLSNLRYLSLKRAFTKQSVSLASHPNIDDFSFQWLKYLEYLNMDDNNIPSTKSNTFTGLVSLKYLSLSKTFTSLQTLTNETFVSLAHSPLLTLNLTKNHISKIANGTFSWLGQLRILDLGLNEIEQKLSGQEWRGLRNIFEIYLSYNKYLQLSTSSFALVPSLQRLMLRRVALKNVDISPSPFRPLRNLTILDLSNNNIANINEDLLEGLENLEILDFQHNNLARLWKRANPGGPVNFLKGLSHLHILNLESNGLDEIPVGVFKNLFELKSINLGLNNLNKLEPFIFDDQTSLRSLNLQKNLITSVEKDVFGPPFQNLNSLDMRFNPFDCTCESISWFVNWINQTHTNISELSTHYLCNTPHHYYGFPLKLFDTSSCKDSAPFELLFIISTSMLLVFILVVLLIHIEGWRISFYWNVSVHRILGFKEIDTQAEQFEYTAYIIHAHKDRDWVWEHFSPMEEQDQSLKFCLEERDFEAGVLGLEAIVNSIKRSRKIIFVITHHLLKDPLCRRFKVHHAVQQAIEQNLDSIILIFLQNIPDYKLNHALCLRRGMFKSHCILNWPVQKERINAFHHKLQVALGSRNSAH
Nature of the data set: In vitro TLR3 inhibition assay: Poly IC-induced NO production in RAW 264.7 cells. The class given is cell-based. The source says: The initial hits (Figure A) were first evaluated using the present inventors' previously established high-throughput cell assay of TLR3 activation. See, for example, ACS Med. Chem. Lett. 2010, 1, 194 and Bioorg. Med. Chem. Lett., 2010, 20, 5411. Poly IC (Polyriboinosinic:polyribocytidylic acid) has been reported to selectively activate TLR3 signaling, resulting in the activation of nitric oxide synthase and the production nitric oxide (NO) in RAW 264.7 macrophage cells. The NO level was monitored as an indicator of Poly IC-induced TLR3 activation to evaluate the drug's inhibitory activity.
RAW 264.7 (Mouse leukaemic monocyte macrophage cell line) cells were grown in RPMI 1640 medium, supplemented with 10% FBS, penicillin (100 U/mL) and streptomycin ([…]). RAW cells were then planted in 96-well plates at 100,000 cells per well and grown for 24 h in the media descried previously at 37° C. in a 5% CO2 humidified incubator. After 24 h, non-adherent cells and media were removed and replaced with fresh RPMI 1640 medium (only RPMI). The adherent macrophages were treated with high molecular weight polyinosine-polycytidylic acid (Poly IC) (10 μg/mL) (Invivogen), an agonist of TLR3, and then added different concentrates of potential inhibitor. Two rows were only treated with Poly IC as an control. Plates were then incubated for an additional 24 h. Following incubation 100 μL of media was removed and added to flat black 96-well microfluor plates (Thermo Scientific, MA, USA). To each well, 10 μL of 2,3-diaminonaphthalene (0.05 mg/mL in 0.62 M aqueous HCl solution) was added and incubated for 15 min in the dark. The reaction was quenched by addition of 5 μL of a 3 M aqueous NaOH solution and the plate was read on Beckman Coulter DTX880 reader (Beckman Coulter, Calif., USA) with excitation at 365 nm and emission at 450 nm. The nitrite (a stable metabolite of nitric oxide) concentration was determined from a nitrite standard curve. The inhibition rate (%) of NO release was determined using the following formula: Inhibition (%)=[Poly IC(OD450)−Compounds (OD450)]/[Poly IC(OD450)−Control (OD450)]×100. The IC50 values for both inhibition and cytotoxicity were determined graphically using software Origin v7.5.

Data set [2] deals with MCP-1. Briefly: In vivo poly IC-induced serum MCP-1 in wild-type mice. The following applies: pretreatment 30 minutes prior to 100 μg poly IC i.v., serum 4 hours after. Here is the method: Wild-type mice were treated with a single 100 μg of poly IC i.v. injection and the serum concentration of MCP-1 was investigated 4 hours after the treatment. […] Pretreatment with compound 4a at various concentrations 30 minutes prior to poly I:C application decreased MCP-1 production by about 50%.

Data set [3] deals with T2, TLR2/6 (Mus musculus, UniProt Q9EPW9+Q9QUN7).
T2 construct: endogenous in cells; host or cells: RAW 264.7
Nature of the data set: RAW264.7 cell nitric oxide TLR selectivity assay (FSL-1). The class given is cell-based. The following applies: 27 μM.

Data set [4] deals with RANTES. Nature of the data set: In vivo poly IC-induced RANTES production. The arrangement: species or system mice.
The target of data set [5] is T3, Cyp3A4 (Homo sapiens, UniProt P08684).
T3 construct: tissue Apredica (testing lab); host or cells: microsomes (subcellular fractions)
Nature of the data set: Cytochrome P450 toxicity assay. It counts as in vitro ADME. The following applies: 25 μM and 50 μM; compared to known inhibitor ketoconazole. The method, then:
(§1) Test agent was incubated (two wells per condition) with microsomes at 37° C. Control incubations containing vehicle or reference inhibitors were run along side the test agents. The final assay contained test agent, probe substrates at the indicated concentration, 2 mM NADPH, 3 mM MgCl2 in 50 mM potassium phosphate buffer, pH 7.4. The final microsomal concentration was 0.5 mg/mL. The maximum solvent concentration in the final assay was ≦0.5% to minimize the inhibition of Cyps by solvent. NADPH was added last to start the assay. At the end of ten minutes incubation, the assay was stopped by the addition of acetonitrile containing internal standard, the samples were centrifuged, and the amount of probe metabolite in the supernatant was determined by LC/MS/MS. (Testing was done by Apredica, Watertown, Mass. using subcellular fractions)

The target of data set [6] is T4, Cyp2D6 (Homo sapiens, UniProt P10635).
T4 construct: tissue Apredica (testing lab); host or cells: microsomes (subcellular fractions)
Briefly: Cytochrome P450 toxicity assay. It counts as in vitro ADME. The following applies: 25 μM and 50 μM; compared to known inhibitor quinidine. The method, then:
as §1

Data set [7] concerns the target T5, Cyp2C19 (Homo sapiens, UniProt P33261).
T5 construct: tissue Apredica (testing lab); host or cells: microsomes (subcellular fractions)
Nature of the data set: Cytochrome P450 toxicity assay. It counts as in vitro ADME. The following applies: 25 μM and 50 μM; compared to known inhibitor ticlopidine. Here is the method: as §1

T3 sequence (P08684 whole entry): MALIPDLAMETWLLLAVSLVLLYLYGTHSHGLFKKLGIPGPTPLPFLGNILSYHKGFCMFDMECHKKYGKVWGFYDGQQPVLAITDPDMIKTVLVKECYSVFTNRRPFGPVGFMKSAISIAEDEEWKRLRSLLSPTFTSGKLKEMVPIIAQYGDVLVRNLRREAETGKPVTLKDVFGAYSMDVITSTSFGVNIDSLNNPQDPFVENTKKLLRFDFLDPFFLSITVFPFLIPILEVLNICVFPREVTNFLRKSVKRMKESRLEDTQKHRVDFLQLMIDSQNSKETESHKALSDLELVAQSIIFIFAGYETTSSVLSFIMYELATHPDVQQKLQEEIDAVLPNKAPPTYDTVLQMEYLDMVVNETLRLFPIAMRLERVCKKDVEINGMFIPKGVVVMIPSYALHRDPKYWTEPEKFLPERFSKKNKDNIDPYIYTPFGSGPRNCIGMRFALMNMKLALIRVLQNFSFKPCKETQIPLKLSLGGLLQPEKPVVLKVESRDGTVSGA
T4 sequence (P10635 whole entry): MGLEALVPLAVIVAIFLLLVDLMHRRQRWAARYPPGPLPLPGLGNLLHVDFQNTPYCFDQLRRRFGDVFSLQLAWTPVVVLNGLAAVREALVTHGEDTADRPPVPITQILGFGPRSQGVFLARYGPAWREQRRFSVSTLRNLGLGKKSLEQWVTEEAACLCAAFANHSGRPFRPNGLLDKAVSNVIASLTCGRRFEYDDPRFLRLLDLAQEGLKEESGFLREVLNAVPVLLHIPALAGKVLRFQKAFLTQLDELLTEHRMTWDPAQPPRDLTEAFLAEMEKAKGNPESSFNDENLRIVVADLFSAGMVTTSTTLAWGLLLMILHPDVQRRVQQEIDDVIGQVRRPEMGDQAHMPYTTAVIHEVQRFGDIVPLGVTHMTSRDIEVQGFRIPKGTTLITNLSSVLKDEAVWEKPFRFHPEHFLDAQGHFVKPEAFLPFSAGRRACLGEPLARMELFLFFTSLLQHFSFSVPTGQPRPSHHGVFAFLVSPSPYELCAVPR
T2 sequence (Q9QUN7 25-784): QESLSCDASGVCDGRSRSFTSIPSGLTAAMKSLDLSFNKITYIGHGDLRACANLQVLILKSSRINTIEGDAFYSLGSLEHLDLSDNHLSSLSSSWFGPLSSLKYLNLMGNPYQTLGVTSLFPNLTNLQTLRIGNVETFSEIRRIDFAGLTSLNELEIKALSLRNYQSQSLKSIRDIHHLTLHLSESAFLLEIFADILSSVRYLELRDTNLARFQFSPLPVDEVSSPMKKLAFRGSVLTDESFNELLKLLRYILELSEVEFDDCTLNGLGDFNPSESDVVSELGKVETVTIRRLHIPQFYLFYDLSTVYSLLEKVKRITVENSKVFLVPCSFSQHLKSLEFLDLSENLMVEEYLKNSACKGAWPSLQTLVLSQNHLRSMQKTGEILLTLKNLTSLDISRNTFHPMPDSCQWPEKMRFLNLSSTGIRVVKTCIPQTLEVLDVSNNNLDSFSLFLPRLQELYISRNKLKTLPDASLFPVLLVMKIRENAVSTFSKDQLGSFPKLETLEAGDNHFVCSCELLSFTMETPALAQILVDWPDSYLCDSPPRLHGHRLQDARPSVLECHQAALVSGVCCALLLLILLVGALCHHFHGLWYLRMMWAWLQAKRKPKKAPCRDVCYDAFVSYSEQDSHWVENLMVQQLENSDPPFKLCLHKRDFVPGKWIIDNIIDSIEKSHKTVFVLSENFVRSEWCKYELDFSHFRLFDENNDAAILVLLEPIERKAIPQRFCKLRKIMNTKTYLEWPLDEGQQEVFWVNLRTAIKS
T2 sequence (Q9EPW9 28-795): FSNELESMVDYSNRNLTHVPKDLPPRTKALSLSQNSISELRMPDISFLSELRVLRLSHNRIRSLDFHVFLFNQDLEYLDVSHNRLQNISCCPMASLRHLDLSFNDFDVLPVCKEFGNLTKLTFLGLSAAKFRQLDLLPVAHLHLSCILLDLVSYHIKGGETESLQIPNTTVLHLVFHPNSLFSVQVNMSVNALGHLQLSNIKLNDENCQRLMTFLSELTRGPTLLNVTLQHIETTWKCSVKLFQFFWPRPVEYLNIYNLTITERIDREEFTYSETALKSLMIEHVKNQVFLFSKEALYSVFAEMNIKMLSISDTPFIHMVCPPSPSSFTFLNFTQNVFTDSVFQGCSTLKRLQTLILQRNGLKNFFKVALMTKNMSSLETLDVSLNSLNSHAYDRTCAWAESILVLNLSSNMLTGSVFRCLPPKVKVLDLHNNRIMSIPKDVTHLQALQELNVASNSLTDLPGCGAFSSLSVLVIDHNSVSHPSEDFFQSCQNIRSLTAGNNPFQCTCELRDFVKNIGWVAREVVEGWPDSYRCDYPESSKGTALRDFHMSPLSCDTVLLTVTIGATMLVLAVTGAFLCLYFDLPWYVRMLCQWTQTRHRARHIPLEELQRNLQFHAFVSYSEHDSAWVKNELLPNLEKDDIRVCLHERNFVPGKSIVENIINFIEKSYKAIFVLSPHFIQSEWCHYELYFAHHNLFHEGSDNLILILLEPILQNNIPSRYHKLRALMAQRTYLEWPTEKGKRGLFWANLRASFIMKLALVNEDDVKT
T5 sequence (P33261 whole entry): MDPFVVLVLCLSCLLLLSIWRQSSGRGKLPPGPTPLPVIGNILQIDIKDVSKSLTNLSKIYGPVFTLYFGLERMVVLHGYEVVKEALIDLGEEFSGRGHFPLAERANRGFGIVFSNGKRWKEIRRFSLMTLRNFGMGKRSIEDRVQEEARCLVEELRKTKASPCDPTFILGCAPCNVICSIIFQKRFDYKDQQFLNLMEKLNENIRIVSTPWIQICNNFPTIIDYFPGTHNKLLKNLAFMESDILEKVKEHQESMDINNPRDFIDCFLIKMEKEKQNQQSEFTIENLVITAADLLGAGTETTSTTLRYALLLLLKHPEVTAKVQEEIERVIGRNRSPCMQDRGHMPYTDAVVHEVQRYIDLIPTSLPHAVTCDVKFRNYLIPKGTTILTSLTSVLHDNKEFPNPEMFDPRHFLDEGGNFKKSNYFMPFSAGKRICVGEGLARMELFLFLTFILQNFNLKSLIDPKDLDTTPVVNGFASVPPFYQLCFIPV

A word on the IC50: it is the concentration needed to halve the response being measured. A lower IC50 goes with greater potency. Consider `O=C(N[C@H](Cc1ccccc1)C(=O)O)c1sc2cc(F)ccc2c1Cl` [Compound 4a, (R)-2-(3-chloro-6-fluorobenzo[b]thiophene-2-carboxamido)-3-phenylpropanoic acid], for which, in data set [1] (27 μM, Poly IC), the “TLR3 signaling in specificity test” value is “selectively inhibited TLR3 signaling”. Also, the “increase in potency compared to T5626448” value in data set [1] (4a vs T5626448) is around 45 fold. This compound also returned an IC50 in data set [1] (Poly IC-induced TLR3 activation, cell assay) of 3.44 ± 0.41 µM. Besides, the “decrease of MCP-1 production” value in data set [2] is “about 50%”. Besides, the “effect on TLR2/6 signaling” value in data set [3] is “without significantly affecting other TLRs”. For the same compound, in data set [4] (pretreatment before poly IC i.v.), the “RANTES production with increased pre-treatment doses” value is “decrease of RANTES in a dose-dependent manner; also recorded: decreasing RANTES production”. The “RANTES production with increasing poly IC doses” value in data set [4] (pretreatment with 27 μg) is given as “significant decrease in RANTES production; also recorded: decreased RANTES production”. Further, the “toxicity to Cyp3A4” value in data set [5] is reported as “low toxicity”. Also, the “toxicity to Cyp2D6” value in data set [6] is listed as “low toxicity”. In data set [7], the “toxicity to Cyp2C19” value is recorded as “low toxicity”.

Values taken from patent US9409880B2, “Modulators of TLR3/dsRNA complex and uses thereof” (The Regents of the University of Colorado, a body corporate, priority 2011, dated 2016).
